Test results: a melting point compilation (Tetko et al.; mined from patent text by program, amines drawn as free bases though some values may be those of a salt)

Structure (SMILES)	melting point
O=c1[nH][nH]c(=O)c2c(O)c3c(Cl)c(Cl)c(Cl)cc3nc12	123 to 124 °C
Cc1cc(C)nc(NC(=O)NS(=O)(=O)Nc2nc(C)cc(C)n2)n1	198 °C
Cc1cccc2c1NC(=O)CC2(C)C	120 °C
Oc1cc2c3cc(O)c(O)cc3n(Cc3cccnc3)c2cc1O	290 to 294 °C
CCC(O)(C#CC(=O)c1ccc(SC)cc1)CC	49 to 50 °C
CCOCc1nc2c(N)nc3cc(-c4cccnc4)ccc3c2n1C[C@@H]1COC(C)(C)O1	155 to 156 °C
CC(C)(C)OC(=O)N[C@H](C(=O)N1CCC[C@H]1C(=O)NC1CCc2nc(N)sc2C1)C(c1ccccc1)c1ccccc1 (some centres not stated)	127 to 130 °C
O=C1C2CC=C(SC3=CCC4C(=O)N(c5ccccc5)C(=O)C4C3)CC2C(=O)N1c1ccccc1 (configuration not stated)	212 to 217 °C
COc1cc2ncnc(-c3nnn[nH]3)c2cc1OC	207 °C
C#CCN(c1ccc(C(=O)NC(CCCCC(=O)O)C(=O)O)cc1)C1CCc2cc3nc(C)[nH]c(=O)c3cc21 (mixture of isomers)	165 °C
CC(=O)N(CC(=O)O)C[C@H]1O[C@H](c2ccccc2Cl)c2cc(Cl)ccc2N(Cc2ccccc2)C1=O (relative stereo)	143 to 145 °C
CCOC(C)c1ccc(OCCCN2CCC(c3noc4cc(F)ccc34)CC2)c(OC)c1 (configuration not stated)	139 °C
Cn1c(=S)n(C)c(=O)n(-c2c(F)cc(Cl)c3ncoc23)c1=O	209 to 211 °C
CCc1nn2c(N)cc(N3CCN(C)CC3)nc2c1S(=O)(=O)c1ccccc1	> 250 °C
COC(=O)C1=C(C)Nc2nc(N3CCOCC3)nc(N3CCOCC3)c2C1c1cccc(Cl)c1Cl (configuration not stated)	188 °C
Cc1c(CC(=O)O)oc2ccc(F)cc12	129 to 130 °C
O=C1Nc2cc(-c3ccc(C(F)(F)F)cc3)ccc2C1c1cc(Cl)ccc1O (configuration not stated)	221 to 225 °C
CC(=O)Nc1cc(C)nn1C	45 to 46 °C
Cc1cc(OC/C=C(\c2ccc(C#CCN3CCOCC3)cc2)c2ccc(S(C)=O)cc2)ccc1OCC(=O)O (configuration not stated)	137 to 142 °C
FC(F)(F)c1ccc(-c2cc3ncnc(Nc4ccc5[nH]ccc5c4)c3s2)cc1	181 to 194 °C
COc1ccc(F)cc1C(C)(C)CC(O)(Cn1cc(CO)c(=O)c2ccccc21)C(F)(F)F (configuration not stated)	183 to 184 °C
CC(C)C[C@H]1C[C@]2(O)C[C@@H](OC2=O)[C@@H]1OC(=O)c1ccccc1	71 to 72 °C
O=C(NCc1ccc2ccn(C3CCN(CCc4ccc(F)cc4)CC3)c2c1)C(F)F	79 to 80 °C
C[C@H](NC(=O)OC(C)(C)C)C(=O)N1CCC[C@H]1C(=O)O	155 to 157 °C
Cn1cncc1C(N)(c1ccc([N+](=O)[O-])cc1)c1ccc2c(c1)c(-c1cccc(Cl)c1)cc(=O)n2C (configuration not stated)	258 °C
CC(C)CC(O)(Cn1ccnn1)c1ccccc1 (configuration not stated)	94 to 95 °C
CCCCCCCCCCCNC(=O)NCCCC	70 °C

Structure (SMILES)	melting point
Cc1oc(-c2ccccc2)nc1COc1ccc(CCc2oc(-c3ccccc3)nc2CC(=O)O)cc1	180 to 181 °C
CC(O)CN(CC(=O)O)CC(C)O (configuration not stated)	145 °C
CON=C1CN(c2cc3c(cc2F)c(=O)c(C(=O)O)cn3-c2ccc(F)cc2F)CC12CN(C(=O)OC(C)(C)C)C2	263 to 264 °C
CCOC(=O)c1cn(C2Cc3cc(F)ccc3C2=O)c(C(=O)OCC)n1 (configuration not stated)	138 °C
CC(C)(C)OC(=O)Nc1nc(/C(=N/OC(c2ccccc2)(c2ccccc2)c2ccccc2)C(=O)O)cs1	157 to 158 °C
CC(=O)Nc1snc(C)c1[N+](=O)[O-]	210 °C
CCC1CC(=O)N(Cc2ccc(C(=O)NC3CCCC3)cc2)N=C1c1ccc(OC)c(OC2CCCC2)c1 (configuration not stated)	73 °C
NS(=O)(=O)c1cccc(Cl)c1C=C1CCOC1=O	172 to 174 °C
CCCc1cn(C)c2c(=O)[nH]c(-c3cc(S(=O)(=O)N4CCN(CCOC(C)=O)CC4)ccc3OCC)nc12	192 °C
O=C(O)c1ccc(C(Cl)=C(Cl)Cl)cn1	158 to 159 °C
O=C(c1ccc2nonc2c1)N1CC2CCC1CC2	138 to 139 °C
CCN(CC)c1nc(C)nc2nc(-c3ccncc3)[nH]c12	228 to 230 °C
CC(=O)Nc1ccc(C(=O)N(C)Cc2cccc(-c3ccc(CC4SC(=O)NC4=O)cc3)c2)cc1 (configuration not stated)	207 °C
N#Cc1nc(Cl)c(-c2c(F)cc(F)cc2F)c(N2CCCO2)n1	107 to 113 °C
CC1(C)C2CC[C@]1(C)C(=O)C(C(=O)Nc1cccc([N+](=O)[O-])c1)C2=O (some centres not stated)	100 to 102 °C
O=S1(=O)NC(C23CC4CC(CC(C4)C2)C3)Nc2c(Br)cc(Br)cc21 (configuration not stated)	270 to 273 °C
CC(C)C(NS(=O)(=O)c1ccc2c3c(oc2c1)CCCC3)C(=O)O (configuration not stated)	167 to 169 °C
CCCCCCOc1nc(-c2ccccc2)sc1-c1ccccc1	70 to 72 °C
CCOCc1c(C)nc2c3cccc(Cl)c3ccn12	94 to 96 °C
COC(=O)c1cc(S(N)(=O)=O)c(OC)c2c1OCCO2	202 to 203 °C
CS(=O)(=O)Nc1cccc(OCCCN2CCC(OC(c3ccccc3)c3ccccc3)CC2)c1	90 to 95.5 °C
CC(=O)NC[C@H]1CN(c2ccc(N3CCN(CCN4CCOCC4)CC3)c(F)c2)C(=O)O1	150 to 152 °C
c1cn(CCC23CC4CC(CC(C4)C2)C3)cn1	64 to 65 °C
OCCN(CCc1ccccc1)C(=S)NCCCc1ccncc1	106 to 107 °C
c1cn(CCCc2ccc(OCc3coc(C4CCCCC4)n3)cc2)cn1	46 to 47 °C
CN(C)C(=O)CCO[C@H]1CC[C@H](N(C)S(=O)(=O)c2ccc(C(F)(F)F)cc2)CC1	88 °C
CCOCCn1c(N2CCCN(CCC3(c4ccccc4)CCN(C(=O)c4cc(OC)c(OC)c(OC)c4)C3)CC2)nc2ccccc21 (configuration not stated)	82 to 94 °C

Now from value to molecule:

melting point	Structure (SMILES)
182 to 186 °C	CC(=O)SCC(Cc1ccccc1)C(=O)Nc1cc(C)cc(C(=O)O)c1C (configuration not stated)
175 to 178 °C	COc1cc(OC(CCc2ccc(Cl)cc2)Cn2ccnc2)ccc1NC(C)=O (configuration not stated)
230 °C	Cc1ccc2nc(C(=O)Nc3ccccn3)[nH]c2c1
75 to 76 °C	COC(=O)CNc1cccc(Cl)c1
232 °C	CCOC(c1ccc(C=NO)cc1)(c1ccc2[nH]c(=O)cc(-c3cccc(Cl)c3)c2c1)c1cncn1C (configuration not stated)
61 to 62 °C	O=C1Cc2ccc(Cl)cc2C(c2ccccc2)C1 (configuration not stated)
113 to 115 °C	O=C1c2cc(OCc3ccc4ccccc4n3)ccc2OCC1OCc1ccccc1 (configuration not stated)
209 to 210 °C	O=C(CSc1nc2ccccc2[nH]1)c1ccc2[nH]c3ncc(Cl)cc3c2c1
145 to 146 °C	O=Cc1ccc(-c2noc(-c3ccc(C(F)(F)F)cc3)n2)cc1
141 to 143 °C	CCOC(=O)c1cnc2c(OC)csc2c1Nc1ccccc1C
153 to 154 °C	COC(=O)CCc1cc(C(CC(C)C)NC(=O)Cc2ccc(NC(=O)Nc3ccccc3C)cc2)no1 (configuration not stated)
200 to 202 °C	Cn1cc(Oc2cccc(Cl)c2Cl)c(=O)c(-c2cccc(C(F)(F)F)c2)c1
112 to 114 °C	CON(c1ccc([N+](=O)[O-])cc1[N+](=O)[O-])S(=O)(=O)c1ccccc1Cl
62.2 °C	O=C(Cc1ccc(Cl)cc1)OCCCOc1c(Cl)cc(OCC=C(Cl)Cl)cc1Cl
93 to 95 °C	CC1(C)OC(=O)C(Oc2ccc(F)c(F)c2)=C1c1ccc(S(C)(=O)=O)cc1
115 °C	COc1ccc(-c2ccncc2)cc1-c1ccc(F)c(Cl)c1
218 to 219 °C	COc1ccc2cc(C=NNC(N)=O)ccc2c1
88 to 90 °C	C=CC(C)(C)C(O)C(Oc1ccc(Cl)cc1)n1ccnc1 (configuration not stated)
140 °C	Nc1ccc(CCOC(=O)Nc2ccc(Nc3ccccc3)cc2)cc1
178 to 180 °C	Cn1c(=O)c(C(=O)O)c(-c2ccccc2Cl)c2cccnc21
146 to 149 °C	COc1ccc2c(c1)CCC1C2CCC2(C)C(=O)C(Br)CC12 (configuration not stated)
76.5 to 78 °C	CCc1cnc(-c2ccc(OC)cc2)c(-c2ccc(OC)cc2)n1

melting point	Structure (SMILES)
221 to 223 °C	Nc1ccc(Sc2c(NCC3CC3)cc(C(=O)O)cc2S(N)(=O)=O)cc1
97 to 98 °C	CCOC(=O)C1CCN(c2nc(COc3ccc(C=O)cc3OC)c(C)s2)CC1
248 to 249 °C	CCC(=S)C1=C(C)NC2=C(C(=O)c3ccccc32)C1c1ccccc1 (configuration not stated)
194 to 195 °C	COc1ccc(CCOc2ccnc(-c3cccc(C(=O)O)c3)c2)cc1OC
120 to 121 °C	CC(C)NC(=O)CSCC(=O)c1ccc(-c2ccccc2)cc1
59 to 61 °C	COC(=O)c1ccc(-n2ccc(C)n2)cc1C(F)(F)F
123 to 124 °C	CC(=O)CC1CN=C(c2cc3cccc(N(C)S(=O)(=O)c4cccs4)c3[nH]2)S1 (configuration not stated)
155 to 156 °C	COc1ccc(-c2cc(=O)n(Cc3ccc(F)c(F)c3)nc2-c2ccc(OC)cc2)cc1
149 to 150 °C	COc1cc(C)c2c(c1)C(C(=O)O)=CCC2
199 to 200 °C	COc1nc(NC(=O)NS(=O)(=O)c2ccccc2OC(Cl)=CCl)nc(OC)n1
258 to 260 °C	CNC(=NCCCc1nc2cc(C3=NNC(=O)CC3C)ccc2[nH]1)NS(=O)(=O)c1ccccc1 (configuration not stated)
226 to 228 °C	CCOc1ccccc1Nc1ncc(C(=O)O)c(=O)[nH]1
156 to 158 °C	N#Cc1ccc2oc(C(=O)CBr)cc2c1
179 to 181 °C	Cn1nc(-c2ccc(Cl)c(Cl)c2)c2ccccc2c1=O
84 to 85 °C	CCC(Oc1ccccc1)c1nnc(NC(=O)N(C)CC(OC)OC)s1 (configuration not stated)
190 to 193 °C	CC(=O)c1c(O)cccc1OCCCCCOc1ccc2cc(C(=O)O)ccc2c1
134 °C	CN1CC(CN)Oc2c(-c3cccc(Cl)c3)cccc21 (configuration not stated)
54 to 55 °C	CCOC(=O)C1=Cc2cccc(SC)c2OCC1
114 to 115 °C	CC(C)c1nn(-c2ccc(C(F)(F)F)cn2)cc1COc1cccc(CC(=O)O)c1
84 to 86 °C	CCOC(=O)C(=CNc1ccc(F)cc1F)C(=O)c1c(F)cc(Cl)c(F)c1Cl
187 to 188 °C	COc1cc2c(cc1OC)N(C(=O)c1ccc(-c3ccccc3C(F)(F)F)c(C)c1)Cc1cccn1C2
